Consider 22 compounds from ChEMBL document CHEMBL1147014, “Synthesis and biological evaluation of a novel structural type of serotonin 5-HT3 receptor antagonists” (Bioorg Med Chem Lett, 2006).

In this assay the target is T1, 5-hydroxytryptamine receptor 3A (Cavia porcellus, UniProt O70212).
T1 sequence (O70212 whole entry): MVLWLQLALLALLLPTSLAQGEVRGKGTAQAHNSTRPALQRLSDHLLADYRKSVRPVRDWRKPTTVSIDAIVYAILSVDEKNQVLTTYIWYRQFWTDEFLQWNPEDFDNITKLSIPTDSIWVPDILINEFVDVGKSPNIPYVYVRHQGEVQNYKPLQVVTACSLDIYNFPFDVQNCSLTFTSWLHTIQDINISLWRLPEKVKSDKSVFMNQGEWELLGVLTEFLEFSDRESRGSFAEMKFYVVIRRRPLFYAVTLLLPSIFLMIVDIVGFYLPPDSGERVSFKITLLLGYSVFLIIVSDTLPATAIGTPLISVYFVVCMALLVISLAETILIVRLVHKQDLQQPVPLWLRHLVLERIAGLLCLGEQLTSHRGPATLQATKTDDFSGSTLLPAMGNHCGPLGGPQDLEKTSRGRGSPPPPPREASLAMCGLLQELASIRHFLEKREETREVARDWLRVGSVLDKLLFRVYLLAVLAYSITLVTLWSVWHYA
Nature of the assay: Antagonist effect against 2-methyl-5-HT activity at 5-HT3 receptor in longitudinal muscle myenteric plexus from guinea pig ileum. The assay is classed as functional, tissue-based. Particulars: read-out: pA2 (converted).

As to `CCOc1nc2ccccc2nc1C(=O)Nc1ccc(O)c(CN2CCNCC2)c1`, the Kb is 398 µM. With `COc1nc2ccccc2nc1C(=O)Nc1ccc(O)c(CN2CCOCC2)c1`, the Kb was 1000 µM. On to `COc1nc2ccccc2nc1C(=O)Nc1ccc(O)c(CN2CCCC2)c1`, for which the Kb was 126 µM.

For `CCOc1nc2ccccc2nc1C(=O)Nc1cc(CN2CCNCC2)c(O)c(N2CCNCC2)c1`, the Kb was above 1000 µM. Regarding `COc1nc2ccccc2nc1C(=O)Nc1ccc(O)c(CN2CCCCC2)c1`, the Kb is 316 µM. Turning to `CCOc1nc2ccccc2nc1C(=O)Nc1cc(CN2CCCC2)c(O)c(N2CCCC2)c1`, the Kb is above 1000 µM. Turning to `COc1nc2ccccc2nc1C(=O)Nc1cc(CN2CCN(C)CC2)c(O)c(N2CCN(C)CC2)c1`, the Kb is 15.8 µM. Take `CCN1CCN(Cc2cc(NC(=O)c3nc4ccccc4nc3OC)cc(N3CCN(CC)CC3)c2O)CC1`: the Kb is 79.4 µM.

For the compound `COc1nc2ccccc2nc1C(=O)Nc1cc(CN2CCOCC2)c(O)c(N2CCOCC2)c1`, the Kb was above 1000 µM. On to `COc1nc2ccccc2nc1C(=O)Nc1ccc(O)c(CN2CCNCC2)c1`, for which the Kb is 31.6 µM. Regarding `COc1nc2ccccc2nc1C(=O)Nc1ccc(O)c(CN2CCN(C)CC2)c1`, the Kb is 2 µM.

`CCOc1nc2ccccc2nc1C(=O)Nc1cc(CN2CCN(CC)CC2)c(O)c(N2CCN(CC)CC2)c1`: the Kb is above 1000 µM.

For `CCOc1nc2ccccc2nc1C(=O)Nc1cc(CN2CCN(C)CC2)c(O)c(N2CCN(C)CC2)c1`, the Kb is above 1000 µM.

Take `CCOc1nc2ccccc2nc1C(=O)Nc1ccc(O)c(CN2CCCCC2)c1`: the Kb is 794 µM. Turning to `COc1nc2ccccc2nc1C(=O)Nc1cc(CN2CCNCC2)c(O)c(N2CCNCC2)c1`, the Kb is 100 µM. For the compound `CCOc1nc2ccccc2nc1C(=O)Nc1ccc(O)c(CN2CCN(C)CC2)c1`, the Kb was 25.1 µM. Turning to `CCOc1nc2ccccc2nc1C(=O)Nc1ccc(O)c(CN2CCN(CC)CC2)c1`, the Kb was 126 µM.

With `CCOc1nc2ccccc2nc1C(=O)Nc1cc(CN2CCOCC2)c(O)c(N2CCOCC2)c1`, the Kb is above 1000 µM. Regarding `CCOc1nc2ccccc2nc1C(=O)Nc1ccc(O)c(CN2CCCC2)c1`, the Kb is 316 µM. On to `CCOc1nc2ccccc2nc1C(=O)Nc1ccc(O)c(CN2CCOCC2)c1`, for which the Kb is above 1000 µM. For the compound `CCN1CCN(Cc2cc(NC(=O)c3nc4ccccc4nc3OC)ccc2O)CC1`, the Kb is 12.6 µM. The figure for `COc1nc2ccccc2nc1C(=O)Nc1cc(CN2CCCC2)c(O)c(N2CCCC2)c1` is above 1000 µM.
